Results taken from PMC6178189 (Oxidative Medicine and Cellular Longevity, 2018).
Values after ≈ are worked out from the molar mass of the structure shown.

Target: T1, rat intestinal α-glucosidase
T1 construct: gene Si; crude saline extract of commercial rat intestinal acetone powder (Sigma-Aldrich); mixed brush-border alpha-glucosidases, not purified
Assay: p-nitrophenol release from pNPG, […] nm
Assay type: biochemical
Settings: 5 mM p-nitrophenyl glucopyranoside (maltose or sucrose also named in method; substrate of the table value not told), 0.1 M phosphate pH 6.9, 37°C, 30 min, crude enzyme

C[C@H]1O[C@H](O[C@H]2[C@H](O)[C@@H](O)[C@@H](O[C@H]3[C@H](O)[C@@H](O)C(O)O[C@@H]3CO)O[C@@H]2CO)[C@H](O)[C@@H](O)[C@@H]1N[C@H]1C=C(CO)[C@@H](O)[C@H](O)[C@H]1O (stereo partly shown) [acarbose]
IC50 (mg/mL) / α-Glucosidase: 1.63 ± 0.10 mg/mL (≈ 2520 µM)
